Measurements taken from ChEMBL document CHEMBL1201862, “PubChem BioAssay data set” (2004).
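Values below derive from 48-hour exposures of cells grown in 96-well plates, with endpoints linearly interpolated between the two concentrations bracketing the appropriate inhibition level. Here, GI50 denotes the concentration required for 50% inhibition of growth.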 The source made the active and inactive calls. No stated cut-off is given here; in the data, active = GI50 up to about 1.1 µM and inactive = higher.

What was measured:
Assay in all cases: NCI tumour cell line growth inhibition, 48 h
[1] = system: SNB-19
[2] = system: SK-OV-3
[3] = system: SK-MEL-5
[4] = system: HCT-15
[5] = system: SF-539
[6] = system: UACC-257
[7] = system: TK-10
[8] = system: CAKI-1
[9] = system: NCI/ADR-RES
[10] = system: LOX IMVI
[11] = system: BT-549
[12] = system: SK-MEL-28
[13] = system: ACHN
[14] = system: M14
[15] = system: HCT-116
[16] = system: SF-268
[17] = system: A549
[18] = system: RPMI-8226
[19] = system: HCC 2998
[20] = system: OVCAR-5
[21] = system: SW-620
[22] = system: MDA-MB-231
[23] = system: NCI-H23
[24] = system: CCRF-CEM
[25] = system: MCF7
[26] = system: Malme-3M
[27] = system: MDA-N
[28] = system: EKVX
[29] = system: MDA-MB-435
[30] = system: T47D
[31] = system: OVCAR-8
[32] = system: K562
[33] = system: U-251
[34] = system: MOLT-4
[35] = system: DU-145
[36] = system: A498
[37] = system: HOP-62
[38] = system: HL-60
[39] = system: SR
[40] = system: SK-MEL-2
[41] = system: 786-0
[42] = system: OVCAR-3
[43] = system: IGROV-1
[44] = system: UACC-62
[45] = system: PC-3
[46] = system: SF-295
[47] = system: SN12C
[48] = system: NCI-H522
[49] = system: NCI-H460
[50] = system: RXF 393
[51] = system: OVCAR-4
[52] = system: Hs-578T
[53] = system: KM12
[54] = system: COLO 205
[55] = system: HT-29
[56] = system: NCI-H226
[57] = system: UO-31
[58] = system: SNB-75
[59] = system: HOP-92

Measured: GI50

N#Cc1[nH]c(=O)n(-c2cccc3ccccc23)c1N
active: [18] 0.001 µM
inactive: [1] > 10 µM | [2] > 10 µM | [3] > 10 µM | [5] > 10 µM | [6] > 10 µM | [7] > 10 µM | [8] > 10 µM | [9] > 10 µM | [10] > 10 µM | [11] 4.61 µM | [12] > 10 µM | [13] > 10 µM | [14] > 10 µM | [15] > 10 µM | [16] > 10 µM | [17] > 10 µM | [19] > 10 µM | [20] > 10 µM | [21] > 10 µM | [22] > 10 µM | [23] > 10 µM | [24] > 10 µM | [25] > 10 µM | [26] > 10 µM | [27] > 10 µM | [28] > 10 µM | [29] > 10 µM | [30] > 10 µM | [31] > 10 µM | [32] > 10 µM | [33] > 10 µM | [34] > 10 µM | [35] > 10 µM | [36] > 10 µM | [37] > 10 µM | [38] > 10 µM | [39] > 10 µM | [40] > 10 µM | [41] > 10 µM | [42] > 10 µM | [43] > 10 µM | [44] > 10 µM | [45] > 10 µM | [46] > 10 µM | [47] > 10 µM | [48] > 10 µM | [49] > 10 µM | [50] > 10 µM | [51] > 10 µM | [52] > 10 µM | [53] > 10 µM | [54] > 10 µM | [55] > 10 µM
> 10 µM: [4]

CC12c3c4ccc(C=O)c3Oc3ccc(C=O)c(c31)Oc1ccc(C=O)c(c12)O4
inactive: [1] > 25 µM | [2] > 25 µM | [56] > 25 µM | [5] > 25 µM | [6] > 25 µM | [8] > 25 µM | [9] > 25 µM | [10] > 25 µM | [11] > 25 µM | [12] > 25 µM | [13] > 25 µM | [14] > 25 µM | [15] > 25 µM | [16] > 25 µM | [57] > 25 µM | [17] > 25 µM | [18] > 25 µM | [20] > 25 µM | [21] > 25 µM | [22] > 25 µM | [23] > 25 µM | [24] 17.5 µM | [25] > 25 µM | [26] > 25 µM | [27] > 25 µM | [28] > 25 µM | [58] > 25 µM | [29] > 25 µM | [30] > 25 µM | [31] > 25 µM | [32] > 25 µM | [33] > 25 µM | [59] > 25 µM | [34] > 25 µM | [35] > 25 µM | [36] > 25 µM | [37] > 25 µM | [38] > 25 µM | [39] 7.11 µM | [40] > 25 µM | [41] > 25 µM | [42] > 25 µM | [43] > 25 µM | [44] > 25 µM | [45] > 25 µM | [46] > 25 µM | [47] > 25 µM | [48] > 25 µM | [49] > 25 µM | [50] > 25 µM | [51] > 25 µM | [52] > 25 µM | [53] > 25 µM | [54] > 25 µM | [55] > 25 µM
> 25 µM: [4]
